Data published in PMC4555095, “Inhibitory effects of magnolol and honokiol on human calcitonin aggregation” (Scientific Reports, 2015).

Biological target: T1, Human calcitonin (hCT) (Homo sapiens, UniProt P01258)
T1 construct: gene CALCA; mature 32-residue calcitonin peptide cut from the calcitonin precursor; disulfide Cys-1/Cys-7, C terminus amidated; no tag
T1 sequence (P01258 85-116 limits assumed): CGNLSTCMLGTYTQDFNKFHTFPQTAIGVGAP
Experiment: isothermal titration calorimetry
Assay type: binding
Conditions: read-out: Kb

SMILES	Kd [µM]
C=CCc1ccc(O)c(-c2ccc(O)c(CC=C)c2)c1 [honokiol]	6.49
C=CCc1ccc(O)c(-c2cc(CC=C)ccc2O)c1 [magnolol]	2.62
